# Source: ChEMBL document CHEMBL1201862, “PubChem BioAssay data set” (2004)
#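 Following 48 hours of exposure in 96-well plates, responses at five concentrations were used to interpolate endpoints linearly. GI50: concentration for 50% inhibition of growth.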 Activity calls are given as the source filed them. No stated cut-off is given here; in the data, active = GI50 up to about 1.1 µM and inactive = higher.
# What was measured:
# Assay in all cases: inhibition of tumour cell growth, NCI panel, 48 h
# 786-0 = tested on: 786-0
# A498 = tested on: A498
# ACHN = tested on: ACHN
# COLO 205 = tested on: COLO 205
# DMS-114 = tested on: DMS-114
# HL-60 = tested on: HL-60
# HOP-62 = tested on: HOP-62
# HOP-92 = tested on: HOP-92
# HT-29 = tested on: HT-29
# IGROV-1 = tested on: IGROV-1
# K562 = tested on: K562
# KM-20L2 = tested on: KM-20L2
# KM12 = tested on: KM12
# LXFL 529 = tested on: LXFL 529
# M14 = tested on: M14
# M19-MEL = tested on: M19-MEL
# MOLT-4 = tested on: MOLT-4
# NCI-H23 = tested on: NCI-H23
# NCI-H460 = tested on: NCI-H460
# NCI-H522 = tested on: NCI-H522
# OVCAR-3 = tested on: OVCAR-3
# OVCAR-4 = tested on: OVCAR-4
# OVCAR-5 = tested on: OVCAR-5
# RPMI-8226 = tested on: RPMI-8226
# RXF 393 = tested on: RXF 393
# SF-268 = tested on: SF-268
# SF-295 = tested on: SF-295
# SK-MEL-28 = tested on: SK-MEL-28
# SK-MEL-2 = tested on: SK-MEL-2
# SK-OV-3 = tested on: SK-OV-3
# SNB-19 = tested on: SNB-19
# SNB-75 = tested on: SNB-75
# SNB-78 = tested on: SNB-78
# SR = tested on: SR
# U-251 = tested on: U-251
# UACC-257 = tested on: UACC-257
# UACC-62 = tested on: UACC-62
# UO-31 = tested on: UO-31
# A549 = tested on: A549
# CAKI-1 = tested on: CAKI-1
# CCRF-CEM = tested on: CCRF-CEM
# DMS-273 = tested on: DMS-273
# EKVX = tested on: EKVX
# HCC 2998 = tested on: HCC 2998
# HCT-116 = tested on: HCT-116
# HCT-15 = tested on: HCT-15
# LOX IMVI = tested on: LOX IMVI
# Malme-3M = tested on: Malme-3M
# NCI-H226 = tested on: NCI-H226
# OVCAR-8 = tested on: OVCAR-8
# SF-539 = tested on: SF-539
# SK-MEL-5 = tested on: SK-MEL-5
# SN12C = tested on: SN12C
# SW-620 = tested on: SW-620
# TK-10 = tested on: TK-10
# BT-549 = tested on: BT-549
# DU-145 = tested on: DU-145
# Hs-578T = tested on: Hs-578T
# MCF7 = tested on: MCF7
# MDA-MB-231 = tested on: MDA-MB-231
# MDA-MB-435 = tested on: MDA-MB-435
# MDA-N = tested on: MDA-N
# NCI/ADR-RES = tested on: NCI/ADR-RES
# PC-3 = tested on: PC-3
# T47D = tested on: T47D
smiles,measurement,setting,value
[N-]=[N+]=NC1(c2ccccc2)C(=O)c2cccc3c2N(CCC3)C1=O (stereo not drawn),GI50,786-0,> 100 µM (inactive)
same,GI50,A498,54.6 µM (inactive)
same,GI50,ACHN,54.1 µM (inactive)
same,GI50,COLO 205,88.3 µM (inactive)
same,GI50,DMS-114,44.5 µM (inactive)
same,GI50,HL-60,21.4 µM (inactive)
same,GI50,HOP-62,> 100 µM (inactive)
same,GI50,HOP-92,33.6 µM (inactive)
same,GI50,HT-29,47.4 µM (inactive)
same,GI50,IGROV-1,84.9 µM (inactive)
same,GI50,K562,27.7 µM (inactive)
same,GI50,KM-20L2,> 100 µM (inactive)
same,GI50,KM12,43.4 µM (inactive)
same,GI50,LXFL 529,56.9 µM (inactive)
same,GI50,M14,36.9 µM (inactive)
same,GI50,M19-MEL,60.7 µM (inactive)
same,GI50,MOLT-4,31.8 µM (inactive)
same,GI50,NCI-H23,49.7 µM (inactive)
same,GI50,NCI-H460,92.3 µM (inactive)
same,GI50,NCI-H522,27 µM (inactive)
same,GI50,OVCAR-3,29.9 µM (inactive)
same,GI50,OVCAR-4,55.8 µM (inactive)
same,GI50,OVCAR-5,> 100 µM (inactive)
same,GI50,RPMI-8226,27.7 µM (inactive)
same,GI50,RXF 393,> 100 µM (inactive)
same,GI50,SF-268,94.2 µM (inactive)
same,GI50,SF-295,34.5 µM (inactive)
same,GI50,SK-MEL-28,> 100 µM (inactive)
same,GI50,SK-MEL-2,> 100 µM (inactive)
same,GI50,SK-OV-3,92.9 µM (inactive)
same,GI50,SNB-19,97.5 µM (inactive)
same,GI50,SNB-75,31.8 µM (inactive)
same,GI50,SNB-78,45.1 µM (inactive)
same,GI50,SR,36 µM (inactive)
same,GI50,U-251,72.3 µM (inactive)
same,GI50,UACC-257,32.3 µM (inactive)
same,GI50,UACC-62,92.7 µM (inactive)
same,GI50,UO-31,18.1 µM (inactive)
CS/C(=N\c1ccccc1)N(c1ccccc1)c1nc(=[N+](C)C)ss1.[O-][Cl+3]([O-])([O-])[O-],GI50,786-0,5.66 µM (inactive)
same,GI50,A498,12.4 µM (inactive)
same,GI50,A549,14.5 µM (inactive)
same,GI50,ACHN,5.42 µM (inactive)
same,GI50,CAKI-1,3.48 µM (inactive)
same,GI50,CCRF-CEM,0.508 µM (active)
same,GI50,COLO 205,0.0647 µM (active)
same,GI50,DMS-114,0.0486 µM (active)
same,GI50,DMS-273,0.166 µM (active)
same,GI50,EKVX,15.3 µM (inactive)
same,GI50,HCC 2998,5.35 µM (inactive)
same,GI50,HCT-116,2.56 µM (inactive)
same,GI50,HCT-15,2.26 µM
same,GI50,HL-60,0.927 µM (active)
same,GI50,HOP-62,13.9 µM (inactive)
same,GI50,HOP-92,2.79 µM (inactive)
same,GI50,HT-29,0.034 µM (active)
same,GI50,IGROV-1,1.22 µM (inactive)
same,GI50,K562,0.27 µM (active)
same,GI50,KM-20L2,1.06 µM (active)
same,GI50,KM12,2.65 µM (inactive)
same,GI50,LOX IMVI,3.15 µM (inactive)
same,GI50,M14,1.13 µM (inactive)
same,GI50,M19-MEL,0.0877 µM (active)
same,GI50,MOLT-4,1.5 µM (inactive)
same,GI50,Malme-3M,2.79 µM (inactive)
same,GI50,NCI-H226,10 µM (inactive)
same,GI50,NCI-H23,4.48 µM (inactive)
same,GI50,NCI-H460,0.0338 µM (active)
same,GI50,NCI-H522,0.353 µM (active)
same,GI50,OVCAR-3,1.66 µM (inactive)
same,GI50,OVCAR-4,9.46 µM (inactive)
same,GI50,OVCAR-5,15.3 µM (inactive)
same,GI50,OVCAR-8,2.44 µM (inactive)
same,GI50,RPMI-8226,0.22 µM (active)
same,GI50,RXF 393,4.13 µM (inactive)
same,GI50,SF-268,5.13 µM (inactive)
same,GI50,SF-295,12.5 µM (inactive)
same,GI50,SF-539,4.15 µM (inactive)
same,GI50,SK-MEL-28,1.14 µM (inactive)
same,GI50,SK-MEL-2,2.01 µM (inactive)
same,GI50,SK-MEL-5,1.41 µM (inactive)
same,GI50,SK-OV-3,23.9 µM (inactive)
same,GI50,SN12C,3.2 µM (inactive)
same,GI50,SNB-19,2.22 µM (inactive)
same,GI50,SNB-75,4.71 µM (inactive)
same,GI50,SNB-78,5.06 µM (inactive)
same,GI50,SR,2.16 µM (inactive)
same,GI50,SW-620,1.36 µM (inactive)
same,GI50,TK-10,14.5 µM (inactive)
same,GI50,U-251,2.34 µM (inactive)
same,GI50,UACC-257,2.05 µM (inactive)
same,GI50,UACC-62,0.0441 µM (active)
same,GI50,UO-31,15.1 µM (inactive)
COC1=C(OC)C(O)(c2ccccc2)C1=O (stereo not drawn),GI50,A498,> 100 µM (inactive)
same,GI50,A549,> 100 µM (inactive)
same,GI50,ACHN,> 100 µM (inactive)
same,GI50,CCRF-CEM,> 100 µM (inactive)
same,GI50,DMS-273,> 100 µM (inactive)
same,GI50,EKVX,> 100 µM (inactive)
same,GI50,HL-60,> 100 µM (inactive)
same,GI50,HOP-62,> 100 µM (inactive)
same,GI50,HOP-92,> 100 µM (inactive)
same,GI50,HT-29,> 100 µM (inactive)
same,GI50,IGROV-1,> 100 µM (inactive)
same,GI50,KM12,> 100 µM (inactive)
same,GI50,M14,> 100 µM (inactive)
same,GI50,M19-MEL,> 100 µM (inactive)
same,GI50,MOLT-4,> 100 µM (inactive)
same,GI50,NCI-H23,> 100 µM (inactive)
same,GI50,NCI-H460,> 100 µM (inactive)
same,GI50,NCI-H522,> 100 µM (inactive)
same,GI50,OVCAR-5,> 100 µM (inactive)
same,GI50,OVCAR-8,> 100 µM (inactive)
same,GI50,RXF 393,> 100 µM (inactive)
same,GI50,SF-268,> 100 µM (inactive)
same,GI50,SF-295,> 100 µM (inactive)
same,GI50,SK-MEL-28,> 100 µM (inactive)
same,GI50,SK-OV-3,> 100 µM (inactive)
same,GI50,SNB-19,> 100 µM (inactive)
same,GI50,SNB-78,> 100 µM (inactive)
same,GI50,SR,> 100 µM (inactive)
same,GI50,TK-10,22.2 µM (inactive)
same,GI50,U-251,> 100 µM (inactive)
same,GI50,UACC-257,> 100 µM (inactive)
same,GI50,UO-31,> 100 µM (inactive)
CC(=O)O[C@@H]1C(C2CCCCC2)C=[N+]([O-])O[C@@H]1OC1CCCC1(c1ccccc1)c1ccccc1 (stereo partly drawn),GI50,786-0,3.76 µM (inactive)
same,GI50,A498,7.41 µM (inactive)
same,GI50,A549,14.8 µM (inactive)
same,GI50,ACHN,2.21 µM (inactive)
same,GI50,BT-549,12.4 µM (inactive)
same,GI50,CAKI-1,5.33 µM (inactive)
same,GI50,CCRF-CEM,2.63 µM (inactive)
same,GI50,COLO 205,5.73 µM (inactive)
same,GI50,DU-145,10.9 µM (inactive)
same,GI50,EKVX,15.7 µM (inactive)
same,GI50,HCC 2998,8.57 µM (inactive)
same,GI50,HCT-116,4.06 µM (inactive)
same,GI50,HCT-15,1.92 µM
same,GI50,HL-60,1.6 µM (inactive)
same,GI50,HOP-62,14.9 µM (inactive)
same,GI50,HOP-92,10.1 µM (inactive)
same,GI50,HT-29,2.09 µM (inactive)
same,GI50,Hs-578T,11 µM (inactive)
same,GI50,IGROV-1,3.21 µM (inactive)
same,GI50,K562,3.61 µM (inactive)
same,GI50,KM12,8.04 µM (inactive)
same,GI50,LOX IMVI,1.94 µM (inactive)
same,GI50,M14,5.31 µM (inactive)
same,GI50,MCF7,3.18 µM (inactive)
same,GI50,MDA-MB-231,8.45 µM (inactive)
same,GI50,MDA-MB-435,3.06 µM (inactive)
same,GI50,MDA-N,4.28 µM (inactive)
same,GI50,MOLT-4,3.32 µM (inactive)
same,GI50,Malme-3M,2.99 µM (inactive)
same,GI50,NCI-H226,16.6 µM (inactive)
same,GI50,NCI-H23,11 µM (inactive)
same,GI50,NCI-H460,13.3 µM (inactive)
same,GI50,NCI-H522,2.07 µM (inactive)
same,GI50,NCI/ADR-RES,10.2 µM (inactive)
same,GI50,OVCAR-3,2.7 µM (inactive)
same,GI50,OVCAR-4,7.98 µM (inactive)
same,GI50,OVCAR-5,15.8 µM (inactive)
same,GI50,OVCAR-8,2.04 µM (inactive)
same,GI50,PC-3,9.59 µM (inactive)
same,GI50,RPMI-8226,2.58 µM (inactive)
same,GI50,RXF 393,2.58 µM (inactive)
same,GI50,SF-268,7.4 µM (inactive)
same,GI50,SF-295,14.4 µM (inactive)
same,GI50,SF-539,3.94 µM (inactive)
same,GI50,SK-MEL-28,2.32 µM (inactive)
same,GI50,SK-MEL-2,9.91 µM (inactive)
same,GI50,SK-MEL-5,14.3 µM (inactive)
same,GI50,SK-OV-3,15.7 µM (inactive)
same,GI50,SN12C,9.23 µM (inactive)
same,GI50,SNB-19,16.5 µM (inactive)
same,GI50,SNB-75,3.85 µM (inactive)
same,GI50,SR,2.62 µM (inactive)
same,GI50,SW-620,2.04 µM (inactive)
same,GI50,T47D,2.45 µM (inactive)
same,GI50,TK-10,14.5 µM (inactive)
same,GI50,U-251,12.5 µM (inactive)
same,GI50,UACC-257,14.9 µM (inactive)
same,GI50,UACC-62,5.81 µM (inactive)
same,GI50,UO-31,8.09 µM (inactive)
